Source: patent publication US20160108049A1 (TAKEDA Gmbh, priority 2011, published 2016)

Tests used:
PDE4B1 = molecular target: T1, PDE4B1 (Homo sapiens, UniProt Q07343); test: Inhibition of PDE4 activity (PDE4B1, SPA assay); assay type: biochemical; conditions: recombinant PDE4B1, 0.5 μM cAMP; read-out: PDE4B1 Inhibitory values measured as -logIC50 (converted)
T1 construct: made in house; host or cells: SF21 insect cells (baculovirus; virus made in SF9 cells, pCR-Bac vector)
How it was run: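 Baculovirus-expressed enzyme from SF21 cell 1000×g supernatant; substrate 0.5 μM [3H]cAMP in 20 mM Tris pH 7.4, 5 mM Mg2+, 0.1 mg/ml BSA, 10-20% conversion. 5 min preincubation at 37 °C, 15 min reaction, stopped by SPA beads with IBMX; IC50 by non-linear regression.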

human PDE5 = molecular target: T2, human PDE5 (Homo sapiens, UniProt O76074); test: Inhibition of PDE5 activity (platelet lysate, SPA assay); assay type: biochemical; conditions: 0.5 μM cGMP, read-out: PDE5 Inhibitory values measured as -logIC50 (converted)
T2 construct: from tissue; host or cells: human platelets from fresh donor blood (platelet lysate)
How it was run: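 Human platelet lysate (10,000 g supernatant) served as PDE5 source, with 1 μM motapizone and 10 nM PDE2 inhibitor added, in Tris pH 7.4, 5 mM Mg2+, BSA. Substrate 0.5 μM [3H]cGMP, 10–20% conversion; 5 min preincubation then 15 min at 37 °C, stopped by SPA beads with IBMX. IC50 by non-linear regression.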

T1 sequence (Q07343 whole entry): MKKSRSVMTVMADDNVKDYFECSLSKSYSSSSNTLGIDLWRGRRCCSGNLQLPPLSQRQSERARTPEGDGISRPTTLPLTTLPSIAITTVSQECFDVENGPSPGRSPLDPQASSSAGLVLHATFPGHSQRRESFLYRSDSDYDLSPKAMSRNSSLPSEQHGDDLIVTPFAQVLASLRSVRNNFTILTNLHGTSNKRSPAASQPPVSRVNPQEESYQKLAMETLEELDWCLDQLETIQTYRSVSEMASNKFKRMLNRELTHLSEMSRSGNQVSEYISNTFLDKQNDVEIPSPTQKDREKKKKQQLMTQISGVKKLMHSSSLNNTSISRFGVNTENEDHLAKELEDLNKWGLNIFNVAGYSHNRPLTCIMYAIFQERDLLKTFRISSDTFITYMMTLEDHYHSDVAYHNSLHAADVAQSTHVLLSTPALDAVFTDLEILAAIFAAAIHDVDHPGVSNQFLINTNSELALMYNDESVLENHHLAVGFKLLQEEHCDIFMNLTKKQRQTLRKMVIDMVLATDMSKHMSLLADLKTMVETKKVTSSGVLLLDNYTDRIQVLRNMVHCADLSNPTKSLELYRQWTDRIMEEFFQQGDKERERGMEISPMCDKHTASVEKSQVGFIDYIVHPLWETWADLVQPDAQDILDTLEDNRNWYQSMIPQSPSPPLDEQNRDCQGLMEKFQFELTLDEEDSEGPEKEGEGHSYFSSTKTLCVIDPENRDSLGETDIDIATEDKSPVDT

SMILES	IC50 (PDE4B1) [nM]	IC50 (human PDE5) [nM]
COc1ccc(C2=NN(C3CCN(C(=O)[C@H](CCC(=O)NC(C)C)NC(=O)c4c[nH]c5c(-c6c(OCC7CC7)ccc7c6OCO7)ncnc45)CC3)C(=O)[C@@H]3CCCC[C@H]23)cc1OC [Example 106, 4-[5-(cyclopropylmethoxy)-1,3-benzodioxol-4-yl]-N-[(2S)-1-{4-[(4aS,8aR)-4-(3,4-dimethoxyphenyl)-1-oxo-4a,5,6,7,8,8a-hexahydrophthalazin-2(1H)-yl]piperidin-1-yl}-1,5-dioxo-5-(propan-2-ylamino)pentan-2-yl]-5H-pyrrolo[3,2-d]pyrimidine-7-carboxamide]	1 to 10	1 to 10
COc1ccc(C2=NN(C3CCN(C(=O)CNC(=O)c4c[nH]c5c(-c6c(OCC7CC7)ccc7c6OCO7)ncnc45)CC3)C(=O)C3(CCCC3)C2)cc1OC [Example 122, 4-[5-(cyclopropylmethoxy)-1,3-benzodioxol-4-yl]-N-(2-{4-[9-(3,4-dimethoxyphenyl)-6-oxo-7,8-diazaspiro[4.5]dec-8-en-7-yl]piperidin-1-yl}-2-oxoethyl)-5H-pyrrolo[3,2-d]pyrimidine-7-carboxamide]	1 to 10	1 to 10
COc1ccc(C2=NN(C3CCN(C(=O)[C@@H](Cc4ccc(F)c(F)c4)NC(=O)c4c(C)[nH]c5c(-c6c(OCC7CC7)ccc7c6OCO7)ncnc45)CC3)C(=O)[C@@H]3CCCC[C@H]23)cc1OC [Example 18, 4-[5-(cyclopropylmethoxy)-1,3-benzodioxol-4-yl]-N-[(2R)-3-(3,4-difluorophenyl)-1-{4-[(4aS,8aR)-4-(3,4-dimethoxyphenyl)-1-oxo-4a,5,6,7,8,8a-hexahydrophthalazin-2(1H)-yl]piperidin-1-yl}-1-oxopropan-2-yl]-6-methyl-5H-pyrrolo[3,2-d]pyrimidine-7-carboxamide]	< 1	1 to 10
COc1cc(OCC2CC2)c(-c2ncnc3c(C(=O)N[C@@H](C(=O)N4CCC(N5N=C(c6ccc(OC)c(OC)c6)[C@H]6CCCC[C@H]6C5=O)CC4)[C@H](C)c4ccccc4)c(C)[nH]c23)cc1F [Example 37, 4-[2-(cyclopropylmethoxy)-5-fluoro-4-methoxyphenyl]-N-[(2R,3R)-1-{4-[(4aS,8aR)-4-(3,4-dimethoxyphenyl)-1-oxo-4a,5,6,7,8,8a-hexahydrophthalazin-2(1H)-yl]piperidin-1-yl}-1-oxo-3-phenylbutan-2-yl]-6-methyl-5H-pyrrolo[3,2-d]pyrimidine-7-carboxamide]	1 to 10	1 to 10
COc1ccc(C2=NN(C3CCN(C(=O)[C@@H](CN(C)C)NC(=O)c4c[nH]c5c(-c6c(OCC7CC7)ccc7c6OCO7)ncnc45)CC3)C(=O)[C@@H]3CCCC[C@H]23)cc1OC [Example 96, 4-[5-(cyclopropylmethoxy)-1,3-benzodioxol-4-yl]-N-[(2R)-1-{4-[(4aS,8aR)-4-(3,4-dimethoxyphenyl)-1-oxo-4a,5,6,7,8,8a-hexahydrophthalazin-2(1H)-yl]piperidin-1-yl}-3-(dimethylamino)-1-oxopropan-2-yl]-5H-pyrrolo[3,2-d]pyrimidine-7-carboxamide]	1 to 10	1 to 10
COc1ccc(C2=NN(C3CCN(C(=O)[C@@H](CCSC)NC(=O)c4c[nH]c5c(-c6c(OCC7CC7)ccc7c6OCO7)ncnc45)CC3)C(=O)[C@@H]3CCCC[C@H]23)cc1OC [Example 98, 4-[5-(cyclopropylmethoxy)-1,3-benzodioxol-4-yl]-N-[(2R)-1-{4-[(4aS,8aR)-4-(3,4-dimethoxyphenyl)-1-oxo-4a,5,6,7,8,8a-hexahydrophthalazin-2(1H)-yl]piperidin-1-yl}-4-(methylsulfanyl)-1-oxobutan-2-yl]-5H-pyrrolo[3,2-d]pyrimidine-7-carboxamide]	< 1	< 1
COc1ccc(C2=NN(C3CCN(C(=O)[C@H](CC4CCCCC4)NC(=O)c4c[nH]c5c(-c6c(OCC7CC7)ccc7c6OCO7)ncnc45)CC3)C(=O)C(C)(C)C2)cc1OC [Example 94, N-[(2S)-3-cyclohexyl-1-{4-[3-(3,4-dimethoxyphenyl)-5,5-dimethyl-6-oxo-5,6-dihydropyridazin-1(4H)-yl]piperidin-1-yl}-1-oxopropan-2-yl]-4-[5-(cyclopropylmethoxy)-1,3-benzodioxol-4-yl]-5H-pyrrolo[3,2-d]pyrimidine-7-carboxamide]	1 to 10	< 1
COc1ccc(C2=NN(C3CCN(C(=O)[C@@H](Cc4ccc(C(C)(C)C)cc4)NC(=O)c4c(C)[nH]c5c(-c6c(OCC7CC7)ccc7c6OCO7)ncnc45)CC3)C(=O)[C@@H]3CCCC[C@H]23)cc1OC [Example 46, N-[(2R)-3-(4-tert-butylphenyl)-1-{4-[(4aS,8aR)-4-(3,4-dimethoxyphenyl)-1-oxo-4a,5,6,7,8,8a-hexahydrophthalazin-2(1H)-yl]piperidin-1-yl}-1-oxopropan-2-yl]-4-[5-(cyclopropylmethoxy)-1,3-benzodioxol-4-yl]-6-methyl-5H-pyrrolo[3,2-d]pyrimidine-7-carboxamide]	1 to 10	1 to 10
COc1ccc(C2=NN(C3CCN(C(=O)[C@@H](CCC(=O)N4CCCC4)NC(=O)c4c[nH]c5c(-c6c(OCC7CC7)ccc7c6OCO7)ncnc45)CC3)C(=O)[C@@H]3CCCC[C@H]23)cc1OC [Example 105, 4-[5-(cyclopropylmethoxy)-1,3-benzodioxol-4-yl]-N-[(2R)-1-{4-[(4aS,8aR)-4-(3,4-dimethoxyphenyl)-1-oxo-4a,5,6,7,8,8a-hexahydrophthalazin-2(1H)-yl]piperidin-1-yl}-1,5-dioxo-5-(pyrrolidin-1-yl)pentan-2-yl]-5H-pyrrolo[3,2-d]pyrimidine-7-carboxamide]	1 to 10	1 to 10

Second part, the molecule after the results:

IC50 (PDE4B1) [nM]	IC50 (human PDE5) [nM]	SMILES
< 1	< 1	COc1ccc(C2=NN(C3CCN(C(=O)[C@H](Cc4ccncc4)NC(=O)c4c[nH]c5c(-c6c(OCC7CC7)ccc7c6OCO7)ncnc45)CC3)C(=O)[C@@H]3CCCC[C@H]23)cc1OC [Example 41, 4-[5-(cyclopropylmethoxy)-1,3-benzodioxol-4-yl]-N-[(2S)-1-{4-[(4aS,8aR)-4-(3,4-dimethoxyphenyl)-1-oxo-4a,5,6,7,8,8a-hexahydrophthalazin-2(1H)-yl]piperidin-1-yl}-1-oxo-3-(pyridin-4-yl)propan-2-yl]-5H-pyrrolo[3,2-d]pyrimidine-7-carboxamide]
1 to 10	1 to 10	COc1ccc(C2=NN(C3CCN(C(=O)[C@H](Cc4ccc(F)cc4)NC(=O)c4c[nH]c5c(-c6c(OCC7CC7)ccc7c6OCO7)ncnc45)CC3)C(=O)[C@@H]3CCCC[C@H]23)cc1OC [Example 47, 4-[5-(cyclopropylmethoxy)-1,3-benzodioxol-4-yl]-N-[(2S)-1-{4-[(4aS,8aR)-4-(3,4-dimethoxyphenyl)-1-oxo-4a,5,6,7,8,8a-hexahydrophthalazin-2(1H)-yl]piperidin-1-yl}-3-(4-fluorophenyl)-1-oxopropan-2-yl]-5H-pyrrolo[3,2-d]pyrimidine-7-carboxamide]
1 to 10	1 to 10	COc1ccc(C2=NN(C3CCN(C(=O)[C@@H](Cc4cccc(Cl)c4)NC(=O)c4c[nH]c5c(-c6c(OCC7CC7)ccc7c6OCO7)ncnc45)CC3)C(=O)[C@@H]3CCCC[C@H]23)cc1OC [Example 30, N-[(2R)-3-(3-chlorophenyl)-1-{4-[(4aS,8aR)-4-(3,4-dimethoxyphenyl)-1-oxo-4a,5,6,7,8,8a-hexahydrophthalazin-2(1H)-yl]piperidin-1-yl}-1-oxopropan-2-yl]-4-[5-(cyclopropylmethoxy)-1,3-benzodioxol-4-yl]-5H-pyrrolo[3,2-d]pyrimidine-7-carboxamide]
< 1	1 to 10	COc1ccc(C2=NN(C3CCN(C(=O)[C@@H](Cc4ccc(-c5ccccc5)cc4)NC(=O)c4c[nH]c5c(-c6c(OCC7CC7)ccc7c6OCO7)ncnc45)CC3)C(=O)[C@@H]3CCCC[C@H]23)cc1OC [Example 13, N-[(2R)-3-(biphenyl-4-yl)-1-{4-[(4aS,8aR)-4-(3,4-dimethoxyphenyl)-1-oxo-4a,5,6,7,8,8a-hexahydrophthalazin-2(1H)-yl]piperidin-1-yl}-1-oxopropan-2-yl]-4-[5-(cyclopropylmethoxy)-1,3-benzodioxol-4-yl]-5H-pyrrolo[3,2-d]pyrimidine-7-carboxamide]
< 1	1 to 10	COc1ccc(C2=NN(C3CCN(C(=O)[C@@H](Cc4ccc(C)cc4)NC(=O)c4c(C)[nH]c5c(-c6c(OCC7CC7)ccc7c6OCO7)ncnc45)CC3)C(=O)[C@@H]3CCCC[C@H]23)cc1OC [Example 15, 4-[5-(cyclopropylmethoxy)-1,3-benzodioxol-4-yl]-N-[(2R)-1-{4-[(4aS,8aR)-4-(3,4-dimethoxyphenyl)-1-oxo-4a,5,6,7,8,8a-hexahydrophthalazin-2(1H)-yl]piperidin-1-yl}-3-(4-methylphenyl)-1-oxopropan-2-yl]-6-methyl-5H-pyrrolo[3,2-d]pyrimidine-7-carboxamide]
1 to 10	< 1	COc1ccc(C2=NN(C3CCN(C(=O)[C@@H](Cc4ccc(C(N)=O)cc4)NC(=O)c4c[nH]c5c(-c6c(OCC7CC7)ccc7c6OCO7)ncnc45)CC3)C(=O)[C@@H]3CCCC[C@H]23)cc1OC [Example 7, N-[(2R)-3-(4-carbamoylphenyl)-1-{4-[(4aS,8aR)-4-(3,4-dimethoxyphenyl)-1-oxo-4a,5,6,7,8,8a-hexahydrophthalazin-2(1H)-yl]piperidin-1-yl}-1-oxopropan-2-yl]-4-[5-(cyclopropylmethoxy)-1,3-benzodioxol-4-yl]-5H-pyrrolo[3,2-d]pyrimidine-7-carboxamide]
